Source: ChEMBL document CHEMBL3856246, “Pharbilignan C induces apoptosis through a mitochondria-mediated intrinsic pathway in human breast cancer cells” (Bioorg Med Chem Lett, 2016)
The source made the active and inactive calls. The rule behind the calls is not given here.

Columns and labels:
MDA-MB-231 [1] = test: Induction of apoptosis in human MDA-MB-231 cells assessed as necrotic cells at 5 uM after 72 hrs by Annexin V-FITC/propidium iodide based flow cytometric analysis (reference value: 0.33 %); assay type: functional
[2] = Cytotoxicity against human HCT15 cells after 48 hrs by SRB assay; assay type: functional, cell-based; conditions: HCT-15, 48 h
[3] = Cytotoxicity against human SK-MEL-2 cells after 48 hrs by SRB assay; assay type: functional, cell-based; conditions: SK-MEL-2, 48 h
[4] = Cytotoxicity against human SKOV3 cells after 48 hrs by SRB assay; assay type: functional, cell-based; conditions: SK-OV-3, 48 h
MDA-MB-231 [5] = test: Induction of apoptosis in human MDA-MB-231 cells assessed as necrotic cells at 20 uM after 72 hrs by Annexin V-FITC/propidium iodide based flow cytometric analysis (reference value: 0.33 %); assay type: functional
MCF7 [6] = test: Induction of apoptosis in human MCF7 cells assessed as viable cells at 5 uM after 72 hrs by Annexin V-FITC/propidium iodide based flow cytometric analysis (reference value: 94.10 %); assay type: functional; conditions: MCF7, 72 h, read-out: Activity
MDA-MB-231 [7] = test: Induction of apoptosis in human MDA-MB-231 cells assessed as necrotic cells at 10 uM after 72 hrs by Annexin V-FITC/propidium iodide based flow cytometric analysis (reference value: 0.33 %); assay type: functional
MDA-MB-231 [8] = test: (§1) Cytotoxicity against human MDA-MB-231 cells assessed as reduction in cell viability after 72 hrs by WST1 assay; assay type: functional, cell-based
[9] = as §1; assay type: functional, cell-based; conditions: MDA-MB-231, 72 h
MDA-MB-231 [10] = test: Induction of apoptosis in human MDA-MB-231 cells assessed as late apoptotic cells at 5 uM after 72 hrs by Annexin V-FITC/propidium iodide based flow cytometric analysis (reference value: 0.07 %); assay type: functional
MDA-MB-231 [11] = test: Induction of apoptosis in human MDA-MB-231 cells after 72 hrs by Annexin V-FITC/propidium iodide based flow cytometric analysis; assay type: functional, cell-based
MDA-MB-231 [12] = test: Induction of apoptosis in human MDA-MB-231 cells assessed as downregulation of Bcl2 expression up to 20 uM after 72 hrs by Western blot analysis; assay type: functional, cell-based
MCF7 [13] = test: Induction of apoptosis in human MCF7 cells assessed as necrotic cells at 5 uM after 72 hrs by Annexin V-FITC/propidium iodide based flow cytometric analysis (reference value: 3.48 %); assay type: functional
MCF7 [14] = test: Induction of apoptosis in human MCF7 cells assessed as viable cells at 10 uM after 72 hrs by Annexin V-FITC/propidium iodide based flow cytometric analysis (reference value: 94.10 %); assay type: functional; conditions: MCF7, 72 h, read-out: Activity
[15] = Cytotoxicity against human A549 cells after 48 hrs by SRB assay; assay type: functional, cell-based; conditions: A549, 48 h
MDA-MB-231 [16] = test: Induction of apoptosis in human MDA-MB-231 cells assessed as late apoptotic cells at 20 uM after 72 hrs by Annexin V-FITC/propidium iodide based flow cytometric analysis (reference value: 0.07 %); assay type: functional
[17] = Induction of apoptosis in human MDA-MB-231 cells assessed as upregulation of Bax expression up to 20 uM after 72 hrs by Western blot analysis; assay type: functional, cell-based
MCF7 [18] = test: Cytotoxicity against human MCF7 cells assessed as reduction in cell viability after 72 hrs by WST1 assay; assay type: functional, cell-based
MDA-MB-231 [19] = test: Induction of apoptosis in human MDA-MB-231 cells assessed as caspase-9 activation upto 20 uM after 72 hrs by Western blot analysis; assay type: functional, cell-based
MDA-MB-231 [20] = test: Induction of apoptosis in human MDA-MB-231 cells assessed as viable cells at 10 uM after 72 hrs by Annexin V-FITC/propidium iodide based flow cytometric analysis (reference value: 91.87 %); assay type: functional; conditions: MDA-MB-231, 72 h, read-out: Activity
MDA-MB-231 [21] = test: Induction of apoptosis in human MDA-MB-231 cells assessed as viable cells at 5 uM after 72 hrs by Annexin V-FITC/propidium iodide based flow cytometric analysis (reference value: 91.87 %); assay type: functional; conditions: MDA-MB-231, 72 h, read-out: Activity
MCF7 [22] = test: Induction of apoptosis in human MCF7 cells assessed as necrotic cells at 20 uM after 72 hrs by Annexin V-FITC/propidium iodide based flow cytometric analysis (reference value: 3.48 %); assay type: functional
MCF7 [23] = test: Induction of apoptosis in human MCF7 cells assessed as late apoptotic cells at 20 uM after 72 hrs by Annexin V-FITC/propidium iodide based flow cytometric analysis (reference value: 1.28 %); assay type: functional
MDA-MB-231 [24] = test: Induction of apoptosis in human MDA-MB-231 cells assessed as late apoptotic cells at 10 uM after 72 hrs by Annexin V-FITC/propidium iodide based flow cytometric analysis (reference value: 0.07 %); assay type: functional
MCF7 [25] = test: Induction of apoptosis in human MCF7 cells assessed as viable cells at 20 uM after 72 hrs by Annexin V-FITC/propidium iodide based flow cytometric analysis (reference value: 94.10 %); assay type: functional; conditions: MCF7, 72 h, read-out: Activity
MCF7 [26] = test: Induction of apoptosis in human MCF7 cells assessed as necrotic cells at 10 uM after 72 hrs by Annexin V-FITC/propidium iodide based flow cytometric analysis (reference value: 3.48 %); assay type: functional
MCF7 [27] = test: Induction of apoptosis in human MCF7 cells assessed as early apoptotic cells at 10 uM after 72 hrs by Annexin V-FITC/propidium iodide based flow cytometric analysis (reference value: 1.14 %); assay type: functional
MCF7 [28] = test: Induction of apoptosis in human MCF7 cells assessed as late apoptotic cells at 10 uM after 72 hrs by Annexin V-FITC/propidium iodide based flow cytometric analysis (reference value: 1.28 %); assay type: functional
MDA-MB-231 [29] = test: Induction of apoptosis in human MDA-MB-231 cells assessed as caspase-3 activation upto 20 uM after 72 hrs by Western blot analysis; assay type: functional, cell-based
MCF7 [30] = test: Induction of apoptosis in human MCF7 cells assessed as early apoptotic cells at 5 uM after 72 hrs by Annexin V-FITC/propidium iodide based flow cytometric analysis (reference value: 1.14 %); assay type: functional
MDA-MB-231 [31] = test: Induction of apoptosis in human MDA-MB-231 cells assessed as early apoptotic cells at 5 uM after 72 hrs by Annexin V-FITC/propidium iodide based flow cytometric analysis (reference value: 7.73 %); assay type: functional
MDA-MB-231 [32] = test: Induction of apoptosis in human MDA-MB-231 cells assessed as viable cells at 20 uM after 72 hrs by Annexin V-FITC/propidium iodide based flow cytometric analysis (reference value: 91.87 %); assay type: functional; conditions: MDA-MB-231, 72 h, read-out: Activity
MDA-MB-231 [33] = test: Induction of apoptosis in human MDA-MB-231 cells assessed as early apoptotic cells at 10 uM after 72 hrs by Annexin V-FITC/propidium iodide based flow cytometric analysis (reference value: 7.73 %); assay type: functional
MCF7 [34] = test: Induction of apoptosis in human MCF7 cells assessed as early apoptotic cells at 20 uM after 72 hrs by Annexin V-FITC/propidium iodide based flow cytometric analysis (reference value: 1.14 %); assay type: functional
MDA-MB-231 [35] = test: Induction in apoptosis in human MDA-MB-231 cells assessed as decrease in mitochondrial membrane potential at 20 uM after 24 hrs by JC1 fluorescent dye based confocal microscopic analysis; assay type: functional, cell-based
MCF7 [36] = test: Induction of apoptosis in human MCF7 cells assessed as late apoptotic cells at 5 uM after 72 hrs by Annexin V-FITC/propidium iodide based flow cytometric analysis (reference value: 1.28 %); assay type: functional
MDA-MB-231 [37] = test: Induction of apoptosis in human MDA-MB-231 cells assessed as early apoptotic cells at 20 uM after 72 hrs by Annexin V-FITC/propidium iodide based flow cytometric analysis (reference value: 7.73 %); assay type: functional

CCOC(=O)/C=C/c1cc(O)c2c(c1)[C@@H](C(=O)OCC)[C@@H](c1ccc(O)c(O)c1)O2
Activity (MDA-MB-231 [1]): 0.2%
IC50 [2]: 140 nM
IC50 [3]: 200 nM
IC50 [4]: 160 nM
Activity (MDA-MB-231 [5]): 2.87%
viability at 5 µM (MCF7 [6]): 91.5%
Activity (MDA-MB-231 [7]): 1.9%
Activity (MDA-MB-231 [8]): Dose-dependent effect
IC50 [9]: 7000 nM
Activity (MDA-MB-231 [10]): 0.1%
Activity (MDA-MB-231 [11]): Dose-dependent effect
Activity (MDA-MB-231 [12]): Active
Activity (MCF7 [13]): 7.24%
viability at 10 µM (MCF7 [14]): 88.9%
IC50 [15]: 1420 nM
Activity (MDA-MB-231 [16]): 3.17%
Activity [17]: Active
Activity (MCF7 [18]): Dose-dependent effect
Activity (MDA-MB-231 [19]): Active
viability at 10 µM (MDA-MB-231 [20]): 77.1%
viability at 5 µM (MDA-MB-231 [21]): 93%
Activity (MCF7 [22]): 12.46%
Activity (MCF7 [23]): 1.38%
Activity (MDA-MB-231 [24]): 1.5%
viability at 20 µM (MCF7 [25]): 84.9%
Activity (MCF7 [26]): 9.3%
Activity (MCF7 [27]): 0.7%
Activity (MCF7 [28]): 1.1%
Activity (MDA-MB-231 [29]): Active
Activity (MCF7 [30]): 0.68%
Activity (MDA-MB-231 [31]): 6.73%
viability at 20 µM (MDA-MB-231 [32]): 68.3%
Activity (MDA-MB-231 [33]): 19.5%
Activity (MCF7 [34]): 1.22%
Activity (MDA-MB-231 [35]): Active
Activity (MCF7 [36]): 0.6%
Activity (MDA-MB-231 [37]): 25.63%
